Like-named read-outs stand apart in the source and are kept apart here.
Columns and labels:
[1] = IV reference AUClast in beagle dogs; conditions: dog, in vivo, IV at 5 mg/kg
P-gp = P-gp (Homo sapiens, UniProt P08183); assay: In vitro transporter substrate data (P-gp); assay type: in vitro ADME
[2] = Drug-drug interaction study with itraconazole; assay type: in vivo, humans; conditions: for CL/F / Kel / Vd/F / half-life: arithmetic mean ± SD; for AUC % ex / AUC from 0 to 24 h (AUC0-24) / AUC(0-t) / AUC(0-inf) / Cmax: geometric mean; for AUC from 0 to 24 h (AUC0-24) / AUC(0-t) / Vd/F / half-life / AUC(0-inf) / Cmax / Tmax: both sexes, human, plasma, oral; for Vd/F: read-out: Vz/F; for half-life: read-out: t½ (converted); for Tmax: median
Experimental: An open-label, fixed-sequence, 2-period drug-drug interaction (DDI) study was designed to evaluate the effect of multiple doses of a strong inhibitor of CYP3A4 and P-gp on the single-dose PK of etrumadenant in humans. Etrumadenant was supplied as 25 mg capsules. Itraconazole was used as the representative strong inhibitor of CYP3A4 and P-gp. It was supplied as 10 mg/mL oral solution, Sporanox® by Janssen Pharmaceuticals (or generic equivalent). Twenty (20) healthy, adult male and female (of non-childbearing potential) participants were enrolled. Screening of participants occurred within 28 days prior to the first dosing.
On Day 1 of Period 1, a single 150 mg dose of etrumadenant was orally administered under fasting conditions (i.e., at least 10 hours of fasting prior to dosing and at least 4 hours postdose). PK sampling for etrumadenant and its metabolites was taken predose and up to 120 hours postdose. There was a washout of 5 days between the etrumadenant dose in Period 1 and the first itraconazole dose in Period 2.
In Period 2, 200 mg itraconazole was orally administered twice a day (BID) on Day 1 and once a day (QD) for 9 consecutive days (on Days 2 through 10) with a single 150 mg dose of etrumadenant orally administered 1 hour after itraconazole dosing on Day 6. Itraconazole was administered under fasting conditions. On Day 6, participants fasted for at least 10 hours prior to and at least 4 hours post etrumadenant dosing. PK sampling for etrumadenant and its metabolites was taken predose and up to 120 hours after etrumadenant dosing. PK sampling for itraconazole and 1-hydroxy-itraconazole was collected on Days 5, 6, 7, 9, and 11.
Itraconazole was administered twice on the first day of Period 2 as a loading dose to accelerate CYP3A inhibition and the inhibition was then maintained by administering itraconazole 200 mg QD for 9 consecutive days. A 200 mg BID dose level is expected to provide similar inhibition to a 400 mg QD dose. Although itraconazole reaches steady state within approximately 15 days, it has been established that QD administration of 200 mg itraconazole for 3 to 5 days allows maximum CYP3A inhibition sufficient to detect a DDI. […] As such, administration of itraconazole for at least 4 days is considered sufficient in DDI studies as a CYP3A4 and P-gp inhibitor. To maintain the level of inhibition, itraconazole was administered throughout PK sampling of etrumadenant (i.e., through Day 10 of Period 2). In addition, the itraconazole oral solution was administered under fasting conditions to maximize bioavailability.
Participants were housed on Day −1 of Period 1, at the time indicated by the clinical research unit (CRU), until after the 120-hour blood draw and completion of study procedures in Period 2. Safety was monitored throughout the study by repeated clinical and laboratory evaluations. In this study, there were no discontinued participants. All participants who received at least one dose of study drug (including participants who terminated the study early) were asked to return to the CRU approximately 14 days after the last dose for follow-up procedures, and to determine if any adverse event (AE) had occurred since the last study visit. All adverse events reported in the study were mild and resolved without treatment.

[3] = Etrumadenant 150 mg + Itraconazole
[4] = multiple doses of itraconazole compared to etrumadenant given alone

Chain of P-gp (P08183 whole entry): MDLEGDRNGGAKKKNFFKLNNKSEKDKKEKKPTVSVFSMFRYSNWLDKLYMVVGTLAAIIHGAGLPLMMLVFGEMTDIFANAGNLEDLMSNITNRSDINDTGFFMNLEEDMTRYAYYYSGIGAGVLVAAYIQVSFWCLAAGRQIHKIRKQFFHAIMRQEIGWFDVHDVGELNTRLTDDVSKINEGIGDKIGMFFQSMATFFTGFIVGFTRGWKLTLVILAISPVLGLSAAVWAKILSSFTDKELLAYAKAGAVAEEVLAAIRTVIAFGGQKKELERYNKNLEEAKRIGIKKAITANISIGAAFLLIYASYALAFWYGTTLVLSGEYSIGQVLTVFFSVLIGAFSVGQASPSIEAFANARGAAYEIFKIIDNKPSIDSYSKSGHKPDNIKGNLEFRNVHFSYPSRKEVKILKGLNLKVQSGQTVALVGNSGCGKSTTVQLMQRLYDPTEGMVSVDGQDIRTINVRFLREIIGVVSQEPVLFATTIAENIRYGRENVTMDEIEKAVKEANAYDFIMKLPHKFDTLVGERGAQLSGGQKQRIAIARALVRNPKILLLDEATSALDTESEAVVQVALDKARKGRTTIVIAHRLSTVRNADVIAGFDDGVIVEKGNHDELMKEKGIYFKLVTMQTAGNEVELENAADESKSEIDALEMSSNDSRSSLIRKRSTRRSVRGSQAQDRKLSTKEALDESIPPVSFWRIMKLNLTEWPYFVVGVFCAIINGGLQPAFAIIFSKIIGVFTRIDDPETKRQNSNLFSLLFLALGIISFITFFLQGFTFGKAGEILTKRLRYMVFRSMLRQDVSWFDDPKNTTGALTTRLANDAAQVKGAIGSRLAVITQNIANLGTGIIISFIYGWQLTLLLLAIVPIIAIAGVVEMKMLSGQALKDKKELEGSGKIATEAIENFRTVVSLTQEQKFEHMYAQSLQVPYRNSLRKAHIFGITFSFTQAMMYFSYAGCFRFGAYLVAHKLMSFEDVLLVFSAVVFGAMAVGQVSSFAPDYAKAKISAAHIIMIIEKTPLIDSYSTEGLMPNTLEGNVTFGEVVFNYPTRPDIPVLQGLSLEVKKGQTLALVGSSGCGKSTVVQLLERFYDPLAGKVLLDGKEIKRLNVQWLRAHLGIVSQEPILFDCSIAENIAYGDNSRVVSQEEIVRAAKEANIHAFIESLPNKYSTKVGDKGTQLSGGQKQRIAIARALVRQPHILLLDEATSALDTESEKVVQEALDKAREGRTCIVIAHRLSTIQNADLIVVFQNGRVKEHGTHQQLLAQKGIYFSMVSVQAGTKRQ

In the case of Cc1c(C#N)cccc1-c1cc(-c2cn(Cc3cccc(C(C)(C)O)n3)nn2)nc(N)n1 [Etrumadenant, 3-[2-amino-6-(1-{[6-(2-hydroxypropan-2-yl)pyridine-2-yl]methyl}-1H-1,2,3-triazol-4-yl)pyrimidin-4-yl]-2-methylbenzonitrile], the AUC(0-t) [1] is reported as 25100 ng·h/mL, the “substrate of P-gp” value (P-gp) is reported as “substrate” and the CL/F [2, 3] is reported as 2.52 ± 0.842 L/h. The Kel [2, 3] was 0.0255 ± 0.00605 h⁻¹, the AUC % ex [2, 3] was 4.39% and the CL/F ([2]; Etrumadenant Alone, 150 mg) was 4.00 ± 1.12 L/h. The Kel ([2]; Etrumadenant Alone, 150 mg) was 0.0249 ± 0.00663 h⁻¹, the AUC % ex ([2]; Etrumadenant Alone, 150 mg) was 3.90% and the AUC from 0 to 24 h (AUC0-24) ([2]; 150 mg, Etrumadenant Alone, 150 mg (6 × 25 mg capsules), fasting) was 21600 ng·h/mL. For the same compound, the AUC(0-t) ([2]; 150 mg, Etrumadenant Alone) was 36500 ng·h/mL, the AUC from 0 to 24 h (AUC0-24) ([2]; Etrumadenant 150 mg + Itraconazole 200 mg multiple doses) was 30700 ng·h/mL and the Vd/F [2, 3] was 100 ± 28.3 L. The half-life [2, 3] was 28.7 ± 7.01 h, the AUC(0-inf) [2, 3] was 62600 ng·h/mL and the AUC(0-t) [2, 3] was 59400 ng·h/mL. It also gave a Cmax [2, 3] of 3530 ng/mL, a Tmax [2, 3] of 1.52 h and a Vd/F ([2]; Etrumadenant Alone, 150 mg) of 172 ± 64.8 L. For the same compound, the half-life ([2]; Etrumadenant Alone, 150 mg) was 29.9 ± 8.88 h, the AUC(0-inf) ([2]; Etrumadenant Alone, 150 mg) was 38600 ng·h/mL and the Cmax ([2]; Etrumadenant Alone, 150 mg) was 3000 ng/mL. The Tmax ([2]; Etrumadenant Alone, 150 mg) was 1.38 h, the “increase in etrumadenant AUCinf” value [2, 4] was ~62% and the “increase in etrumadenant AUClast” value [2, 4] was “approximately 63%”. The “increase in etrumadenant Cmax” value [2, 4] was ~18%.

From patent US20260115190A1, “DISPERSIONS OF ETRUMADENANT” (Arcus Biosciences, Inc., priority 2022, published 2026)
